{"source": "patent US7160981B2", "about": "“Peptide antagonists of DP transcription factors” (Prolifix Limited, priority 1996, dated 2007)", "tested_on": "E2F tumour cell line (E2F4 tumour cells)", "format": "cell-based", "settings": "24 hours; 33 μM peptide, 33 μM etoposide", "procedure": "After 24 hours random regions of the culture dish were examined and the percentage of nonviable cells determined by counting cells with an abnormal morphology.\nAt 24 hours post treatment cellular morphology was noted and those with a rounded abnormal appearance were scored as dead.\nCells were cultured as above.", "data": [{"smiles": "COc1cc([C@@H]2c3cc4c(cc3[C@@H](O[C@@H]3O[C@@H]5CO[C@@H](C)O[C@H]5[C@H](O)[C@H]3O)[C@H]3COC(=O)[C@H]23)OCO4)cc(OC)c1O", "note": "[etoposide]", "values": [{"measurement": "cell death (cells with rounded abnormal appearance scored as dead)", "value": "approximately 15%"}]}]}
